# Data from patent US11974988B2, “Neuroprotective compositions and methods of using the same” (The Board of Supervisors of Louisiana State Univer …, priority 2018, dated 2024).
# Entries after “also recorded” stand apart in the source; their conditions may differ. Read-outs that look alike come from different tables or passages of the source.
# Assays:
# [1] = system: organotypic hippocampal slice cultures; test: Oxygen-glucose deprivation (OGD) in organotypic hippocampal slice cultures, propidium iodide staining; assay type: cell-based, rat; details: 20 min OGD, PI 24 h later; SKA-41 30 μM, MK-801 20 μM, riluzole 30 μM, NBQX 10 μM/AP5 50 μM
# Procedure: OGD is an in vitro model for transient cerebral ischemia. In preliminary studies, we prepared hippocampal slice cultures from P7-8 rat pups. Experiments were performed at 14 DIV, when presynaptic Glu function is maximal and synapse formation and NMDAR subunit expression have reached a developmental stage sufficient to sensitize the slice to excitotoxic injury. Propidium iodide (PI), which binds to DNA in a nonspecific manner by penetrating damaged phospholipoid bilayers, was used to assess neural injury 24 h after OGD. […] SKA-41 was present 30 min prior to OGD, during OGD and during the 24 h recovery period.
# [2] = system: activity-regulated Gln/MeAIB transport (SNAT activity) in hippocampal neurons; test: Activity-regulated (spontaneous, 4-AP- or K+-stimulated) [14C]-MeAIB transport in primary hippocampal neurons; assay type: cell-based, rat; set-up: block of transport activity: dose or concentration left out as unconfirmed
# [3] = system: rats injected with kainic acid (KA); test: Kainic acid (KA) seizure model, behaviour; assay type: in vivo, rat
# From the text: […]. Systemic administration of the glutamate analog, kainic acid (KA), to rats produces progressive limbic seizures culminating in status epilepticus that results in neuronal loss within limbic structures in a pattern similar to that observed in human temporal lobe epilepsy.
# [4] = Tolerability observation after i.p. dosing of SKA-41; details: for tolerability: 10 mg/kg i.p., rats
# [5] = SKA-41 concentrations in plasma and brain by LC/MS after i.p. injection; assay type: in vivo; details: rat; for concentration at 1 h: male, intraperitoneal, 10 mg/kg i.p., n=3 rats
# Procedure: Twelve week-old male Sprague-Dawley rats were purchased from Charles River Laboratories (Wilmington, Mass.) and housed in microisolator cages with rodent chow and autoclaved water ad libitum. All experiments were in accordance with National Institutes of Health guidelines and approved by the University of California, Davis Institutional Animal Care and Use Committee.
# SKA-41 is dissolved in Miglyol 812 neutral oil (caprylic/capric triglyceride; Trade name Neobee M5, Spectrum Chemicals, Gardena, Calif., USA) at 1 mg/mL and injected intraperitoneally at 10 mg/kg. After 1 hour, rats (n=3) are subjected to cardiac puncture under deep isoflurane anesthesia and then sacrificed before removing the brain. Blood is collected into EDTA blood sample collection tubes. Plasma is separated by centrifugation and samples stored at −80° C. pending analysis.
# Commercial SPE cartridges (Hypersep C18, 100 mg, 1 mL) are purchased from Thermo Scientific (Houston, Tex., U.S.A). Before the extraction, cartridges are conditioned with acetonitrile, 2×1 mL, followed by water 2×1 mL. After loading the SPE cartridges with plasma samples, they are washed with 2×1 mL of 20% acetonitrile in water followed by elution with a 2×1 mL of acetonitrile. Elute fractions are collected and evaporated to dryness. The residues are reconstituted to solution using appropriate volume of acetonitrile and used for LC-MS analysis.
# Brain samples are treated as following: 4.0 mL of acetonitrile is added to 200 mg of tissue sample and homogenized thoroughly using a T25 digital ULTRA-TURRAX® homogenizer (IKA® Works Inc., NC, USA). The homogenized samples are centrifuged for 10 min at 4000 rpm, the supernatant is separated and evaporated under a constant air flow as described above. The residues are reconstituted using appropriate volume of acetonitrile. The reconstituted material is loaded onto the preconditioned SPE cartridges it is then eluted with 2 mL of acetonitrile. Load and elute fractions are collected and evaporated to dryness. The residues are reconstituted to solution with 200 μL acetonitrile and used for LC-MS analysis. […]
# Using Heated electrospray ionization source (HESI II) in positive ion mode, capillary temperature 300° C., vaporizer temperature: 250° C., spray voltage 3000 V, sheath gas pressure (N2) 30 units, auxiliary gas pressure (N2) 5 units, ion sweep gas pressure (N2) 1 unit, SKA-41 was analyzed by the selective reaction monitoring (SRM) transition of its molecular ion peak 261.0 (M+1)^+ into 175.0 and 133.0 m/z. An 8-point calibration curve spanning a concentration range from 50 nM to 10 μM range was developed for quantification.
# KCa channels = details: cited from earlier work
smiles,measurement,setting,value
"Nc1nc(-c2ccc(OC(F)(F)F)cc2)cs1 [SKA-41, 4-(4-(Trifluoromethoxy)phenyl)thiazol-2-amine]",OGD-induced neural injury (PI staining),[1],completely prevents PI staining; also recorded: prevents OGD-induced neural injury
same,block of transport activity,[2],~90%
same,inhibition at 10 µM,"[2]; Rattus norvegicus, Hippocampal neuron, at 10 μM, read-out: block / inhibition of transport activity",~90%
same,IC50,"[2]; Rattus norvegicus, Hippocampal neuron, hippocampal neurons in vitro, 14C-MeAIB 20 μM, read-out: IC50 to inhibit activity-regulated Gln/MeAIB transport",~2 µM
same,Active (annotation beside the compound name: active vs inactive derivatives),"[2]; Table 1: SKA-41, and active and inactive derivatives",SKA-41 Active CAS no. 436151-95-0 (Oakwood Chemical)
same,"inhibition of spontaneous activity-regulated 14C-MeAIB transport, in words","[2]; screens, 10 μM, GABA 2 mM",active; also recorded: blocked spontaneous transport activity; also recorded: inhibited spontaneous transport activity
same,time until staring and twitching signs disappeared after KA injection,[3]; SKA-41 30 mg/kg pretreatment,≤ 2 h
same,clonic-tonic convulsions after KA,"[3]; rat, in vivo",clonic-tonic convulsions were not observed
same,tolerability,[4],well tolerated with no overt toxicity or sedation; also recorded: well tolerated
same,tolerability,[4]; listed as SKA41,well tolerated with no overt toxicity or sedation
same,untoward effects,[4]; 10-30 mg/kg,did not observe any untoward effects
same,Kp at 1 h,"[5]; Sprague-Dawley, brain/plasma, ip, 10 mg/kg i.p. in Miglyol 812, 1 h, 3 male rats, read-out: brain/plasma ratio",~7
same,concentration at 1 h,"[5]; Sprague-Dawley, brain, read-out: brain concentration, average",12.6 µM
same,concentration at 1 h,"[5]; Sprague-Dawley, plasma, read-out: plasma concentration, average",1.77 µM
same,brain penetration (brain/plasma ratio) relative to riluzole,[5]; in vivo,seven times higher
same,effect on KCa channels / KCa currents,KCa channels,no effect
same,effect on KCa channels / KCa currents,KCa channels; listed as SKA41,no effect; also recorded: inactive
